Data: US7109193B2, “Tricyclic diazepines tocolytic oxytocin receptor antagonists” (Wyeth, priority 2001, dated 2006)

Tests used:
[1] = target: T1, human vasopressin V2 receptor subtype (Homo sapiens, UniProt P30518); assay: Vasopressin binding in Chinese Hamster Ovary cell membranes expressing human vasopressin V2 subtype receptors; settings: 100 nM, CHO cell membranes, [3H]arginine vasopressin, values without parentheses
T1 construct: host or cells: CHO cells (pZeoSV vector)
Summary of the method: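 Radioligand displacement on membranes from CHO cells stably expressing human V2 receptor, 25 to 50 μg protein/well, in 50 mM Tris-HCl pH 7.4 with MgCl2, BSA and protease inhibitors. [^3H]arginine vasopressin (8 nM working solution) incubated 60 min at room temperature; bound label measured by filtration and scintillation counting.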

T1 sequence (P30518 whole entry): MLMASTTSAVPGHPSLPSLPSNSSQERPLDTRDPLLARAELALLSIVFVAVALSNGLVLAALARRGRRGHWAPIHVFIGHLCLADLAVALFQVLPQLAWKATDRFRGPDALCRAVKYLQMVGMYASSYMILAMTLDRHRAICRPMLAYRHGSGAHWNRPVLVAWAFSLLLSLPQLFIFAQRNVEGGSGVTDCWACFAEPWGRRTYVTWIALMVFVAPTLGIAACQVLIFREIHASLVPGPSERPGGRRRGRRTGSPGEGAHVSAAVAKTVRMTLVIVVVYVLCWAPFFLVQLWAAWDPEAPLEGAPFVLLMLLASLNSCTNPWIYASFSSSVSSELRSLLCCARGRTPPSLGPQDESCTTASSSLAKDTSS

SMILES | inhibition at 0.1 µM [1] | melting point
CCOc1ccccc1-c1cc(OC)c(C(=O)N2Cc3cccn3Cc3ccccc32)cc1Cl [Example 17, 10-{[6-Chloro-3-methoxy-2′-ethoxy[1,1′-biphenyl]-4-yl]carbonyl}-10,11-dihydro-5H-pyrrolo[2,1-c][1,4]benzodiazepine] | 32% | 213 to 215 °C
O=C(c1ccc(-c2ccccc2)nc1)N1Cc2cccn2Cc2ccccc21 [Example 29, (6-Phenyl-pyridin-3-yl)-[10,11-dihydro-5H-pyrrolo[2,1-c][1,4]benzodiazepin-10-yl]methanone] | 24% | 171 to 174 °C
Cc1cc(C(=O)N2Cc3cccn3Cc3ccccc32)cc(C)c1-n1c(C)ccc1C [Example 30, [4-(2,5-Dimethyl-1H-pyrrol-1-yl)-3,5-dimethyl-phenyl][10,11-dihydro-5H-pyrrolo[2,1-c][1,4]benzodiazepin-10-yl]methanone] | 3% | 197 to 199 °C
Cc1cc(C(=O)N2Cc3cccn3Cc3ccccc32)ccc1-c1ccncc1 [Example 31, [3-Methyl-4-(4-pyridinyl)phenyl]-[10,11-dihydro-5H-pyrrolo[2,1-c][1,4]benzodiazepin-10-yl]methanone] | 31% | 208 to 210 °C
COc1cc(C(=O)N2Cc3ccc(C(=O)NCCC4CCCN4C)n3Cc3ccccc32)ccc1-n1c(C)ccc1C (stereo not drawn) [Example 315, 10-[4-(2,5-Dimethyl-1H-pyrrol-1-yl)-3-methoxybenzoyl]-N-[2-(1-methyl-2-pyrrolidinyl)ethyl]-10,11-dihydro-5H-pyrrolo[2,1-c][1,4]benzodiazepine-3-carboxamide] | -4% | 
COc1cc(C(=O)N2Cc3ccc(C(=O)N4CCN(CCN(C)C)CC4)n3Cc3ccccc32)ccc1-n1c(C)ccc1C [Example 316, {4-[2-(Dimethylamino)ethyl]-1-piperazinyl}{10-[4-(2,5-dimethyl-1H-pyrrol-1-yl)-3-methoxybenzoyl]-10,11-dihydro-5H-pyrrolo[2,1-c][1,4]benzodiazepin-3-yl}methanone] | -2% | 
COc1cc(C(=O)N2Cc3ccc(C(=O)N4CCN(CCN5CCOCC5)CC4)n3Cc3ccccc32)ccc1-n1c(C)ccc1C [Example 317, {10-[4-(2,5-Dimethyl-1H-pyrrol-1-yl)-3-methoxybenzoyl]-10,11-dihydro-5H-pyrrolo[2,1-c][1,4]benzodiazepin-3-yl}{4-[2-(4-morpholinyl)ethyl]-1-piperazinyl}methanone] | 15% | 
C=CCN1CCN(C(=O)c2ccc3n2Cc2ccccc2N(C(=O)c2ccc(-n4c(C)ccc4C)c(OC)c2)C3)CC1 [Example 318, (4-Allyl-1-piperazinyl){10-[4-(2,5-dimethyl-1H-pyrrol-1-yl)-3-methoxybenzoyl]-10,11-dihydro-5H-pyrrolo[2,1-c][1,4]benzodiazepin-3-yl}methanone] | 17% | 
COc1cc(C(=O)N2Cc3ccc(C(=O)N4CCN(C(C)C)CC4)n3Cc3ccccc32)ccc1-n1c(C)ccc1C [Example 319, {10-[4-(2,5-Dimethyl-1H-pyrrol-1-yl)-3-methoxybenzoyl]-10,11-dihydro-5H-pyrrolo[2,1-c][1,4]benzodiazepin-3-yl}(4-isopropyl-1-piperazinyl)methanone] | 13% | 
COc1cc(C(=O)N2Cc3ccc(C(=O)N4CCN(CCCN(C)C)CC4)n3Cc3ccccc32)ccc1-n1c(C)ccc1C [Example 320, {4-[3-(Dimethylamino)propyl]-1-piperazinyl}{10-[4-(2,5-dimethyl-1H-pyrrol-1-yl)-3-methoxybenzoyl]-10,11-dihydro-5H-pyrrolo[2,1-c][1,4]benzodiazepin-3-yl}methanone] | 21% | 
Cc1cc(C(=O)N2Cc3cccn3Cc3ncccc32)ccc1-c1ccccc1C(F)(F)F [Example 323F, (2-Methyl-2′-trifluoromethyl-[1,1′-biphenyl]-4-yl)-(4H,10H-3a,5,9-triaza-benzo[f]azulen-9-yl)-methanone] | 5% | 
